Reference: patent US10123985B2, “Therapeutic strategies for treating mitochondrial disorders” (Whitehead Institute for Biomedical Research, priority 2015, dated 2018)
“Also recorded” adds a separate entry of the source.

Assays:
143B cells [1] = test: Amino acid and TCA cycle metabolite GC-MS analysis, 143B cells; type: cell-based
Procedure: 143B and 143B CytB cells were seeded at 400,000 cells/well in 6 well dishes overnight. The following day, cells were washed 2 times in PBS and media was changed to proliferation assay media with or without the indicated treatments. […] Soluble content was then dried under nitrogen gas. Polar samples were derivatized and measured as detailed in (Lewis). Relative metabolite abundances were determined by integrating ion peak area (Metran) and normalized to norvaline internal extraction standard.

143B cells [2] = test: Mitochondrial oxygen consumption (Seahorse XF24), cells treated with respiration inhibitors; type: cell-based; conditions: ETC inhibitors plus AKB
Procedure: Oxygen consumption rates were determined on a Seahorse Bioscience Extracellular Flux Analyzer (XF24). Cells were plated in Seahorse Bioscience 24 well plates at 6E4 cells per well in 100 μL complete DMEM, allowed to attach for 1 hour, and 500 μl complete DMEM was added before overnight incubation. The following day cells were washed 2 times in assay media: DMEM without phenol red or pyruvate containing 0.5% dialyzed FBS and 0.1 mg/mL uridine at pH 7.4 and incubated in 500 μL of the same media for the assay.

[3] = system: lactate dehydrogenase (LDH); test: Lactate dehydrogenase assay (disappearance of NADH absorbance); type: biochemical; conditions: 1 mM α-ketobutyrate, 180 μM NADH, absorbance at 340 nm
Procedure: Immediately prior to the start of the assay 100 μL of a reaction buffer containing 50 mM HEPES-KOH pH 7.5, 20 mM KCl, 2 mM MgCl2, 1 mM DTT, 180 μM NADH, 1 mM α-ketobutyrate (where applicable) was combined with LDH (where applicable) in 96-well plates. Lactate dehydrogenase activity was assayed by monitoring disappearance of NADH absorbance at 340 nm over time.

143B CytB cells = test: GC-MS of AKB and AHB concentration in the media during proliferation assay; type: cell-based; conditions: media of 143B CytB cells proliferating with AKB
Procedure: FIG. 1. Cytochrome B mutant 143B cybrid cells are auxotrophic for oxidized substrates that can regenerate NAD^+. (A) Proliferation rate of 143B CytB cells was determined in the presence or absence of pyruvate. (left) Cells were normalized to cell number at t=0 when media conditions were applied. (B) A major fate of pyruvate is as a substrate of lactate dehydrogenase (LDH) where it accepts electrons from NADH to produce NAD^+ and lactate. (C) α-Ketobutyrate (AKB) can act as an alternative electron acceptor substrate for LDH, yielding NAD^+ α-hydroxybutyrate (AHB). (D) Proliferation rate for 143B CytB cells in the presence or absence of AKB was determined as in (A). (E) Intracellular ratio of NAD^+/NADH was determined in 143B CytB cells in untreated media or in the presence of pyruvate (Pyr) or AKB. (F) The concentration of AKB and AHB in the media was determined by GC-MS analysis for each day of a proliferation assay of 143B CytB cells in the presence of AKB as in (D). […]
Given the chemical structure differences between AKB and pyruvate, they cannot share direct carbon-fates, thus we reasoned that AKB is likely being used predominantly as an electron acceptor and not as a carbon substrate in metabolic pathways. To verify this we measured the consumption rate of AKB and the excretion rate of the reduced product, α-hydroxybutyrate (AHB), formed upon NAD^+ regeneration (FIG. 1C). […]

Jurkat cells [4] = test: NAD+ and NADH measurements in Jurkat cells; type: cell-based, human; conditions: wild type Jurkat cells, phenformin (10 μM), aspartate (10 mM)
Procedure: Measurement of NAD^+/NADH was done by modification of manufacturer instructions for NAD^+/NADH Glo Assay (Promega). Jurkat cells were incubated in RPMI under the conditions listed for 8 hours before cell extracts were taken. To extract NAD^+/NADH, cells were centrifuged for 1 minute at 300×g, and washed 3 times by quickly resuspending in 15 mL PBS and centrifuging for 1 minute at 300×g. Pelleted samples were extracted in 100 μL ice cold lysis buffer (1% Dodecyltrimethylammonium bromide (DTAB) in 0.2 N NaOH diluted 1:1 with PBS) and frozen at −80° C. To measure NADH, 20 μL of extracts were heated to 75° C. for 30 min in the basic lysis buffer to degrade NAD^+. To measure NAD^+, samples were diluted 1:1 with 0.4 N HCl and incubated at 60° C. for 15 min where acidic conditions will degrade NADH. Following incubations, samples were quenched by adding 20 μL of 0.25 M Tris, 0.2 N HCl (NADH) or 20 μL of 0.5 M Tris base (NAD^+). Manufacturer instructions were then followed to measure NAD^+/NADH.

Jurkat cells [5] = test: Metabolite profiling (LC/MS) of Jurkat cells; type: cell-based, human; conditions: pyruvate 1 mM
Procedure: LC/MS analyses were conducted on a QExactive benchtop orbitrap mass spectrometer equipped with an Ion Max source and a HESI II probe, which was coupled to a Dionex UltiMate 3000 UPLC system (Thermo Fisher Scientific, San Jose, Calif.). External mass calibration was performed using the standard calibration mixture every 7 days.
Polar metabolites were extracted using 1 ml of ice-cold 80% methanol with 10 ng/ml valine-d8 as an internal standard. After a 10 min vortex and centrifugation for 10 min at 4° C. at 10,000 g, samples were dried under nitrogen gas. Dried samples were stored at −80° C. and then resuspended in 100 μL water; 1 μl of each sample was injected onto a ZIC-pHILIC 2.1×150 mm (5 μm particle size) column (EMD Millipore). Buffer A was 20 mM ammonium carbonate, 0.1% ammonium hydroxide; buffer B was acetonitrile. The chromatographic gradient was run at a flow rate of 0.150 ml/min as follows: 0-20 min.: linear gradient from 80% to 20% B; 20-20.5 min.: linear gradient from 20% to 80% B; 20.5-28 min.: hold at 80% B. The mass spectrometer was operated in fullscan, polarity switching mode with the spray voltage set to 3.0 kV, the heated capillary held at 275° C., and the HESI probe held at 350° C. The sheath gas flow was set to 40 units, the auxiliary gas flow was set to 15 units, and the sweep gas flow was set to 1 unit. The MS data acquisition was performed in a range of 70-1000 m/z, with the resolution set at 70,000, the AGC target at 106, and the maximum injection time at 80 msec. Relative quantitation of polar metabolites was performed with XCalibur QuanBrowser 2.2 (Thermo Fisher Scientific) using a 5 ppm mass tolerance and referencing an in-house library of chemical standards.

Compound: CCC(=O)C(=O)O [AKB, α-ketobutyrate]
- Aspartate level with AKB treatment (143B cells [1]; 143B CytB cells and inhibitor-treated 143B cells, relative to untreated cells): restored aspartate to levels comparable to, or higher than, untreated cells
- Intracellular aspartate levels (143B cells [1]; rotenone treated 143B cells, 24 hours, AKB or 1 mM asparagine): increased intracellular aspartate
- O2 consumption (143B cells [2]): no effect on O2 consumption
- Regeneration of NAD+ from NADH by LDH [3]: capable of regenerating NAD^+ from NADH
- Consumption rate of AKB versus excretion rate of AHB (143B CytB cells): the consumption rate of AKB matched the excretion rate of AHB

Compound: N[C@@H](CC(=O)O)C(=O)O [aspartate]
- NAD+/NADH ratio in cells with ETC inhibition (Jurkat cells [4]): did not restore the NAD/NADH ratio in cells with ETC inhibition; also recorded: does not increase the NAD^+/NADH ratio in cells with ETC inhibition

Compound: CC(=O)C(=O)O [pyruvate]
- Aspartate synthesis with pyruvate (Jurkat cells [5]; MDH1-null Jurkat cells treated with ETC inhibitors): did not stimulate aspartate synthesis; also recorded: depends on MDH1
- Aspartate levels with pyruvate (Jurkat cells [5]; phenformin-treated (10 μM, 24 hours) GOT1-null Jurkat cells): no effect on aspartate
- Aspartate levels with pyruvate (Jurkat cells [5]; phenformin-treated (10 μM, 24 hours) wild type Jurkat cells): increases cellular aspartate levels in a GOT1-dependent manner; also recorded: restored aspartate levels to normal in phenformin-treated wild type cells
